Assay results reported in US9744146B2, “Method for alleviating disturbance of bile acid metabolism, amino acid metabolism, and/or gut microbiota metabolism” (China Medical University, priority 2013, dated 2017).

Key:
[1] = test system: bile acid metabolism; experiment: Analysis of bile acid metabolism markers (glycine, taurine) by NMR in serum and urine of high-fat-diet mice; type: in vivo, C57BL6/J male mice; details: gallic acid 100 mg/kg orally daily (the third group), 16-week-old
Description: (§1) The gallic acid is purchased from Sigma, U.S.A.
(§2) In addition, to ensure experimental stability, the mice in the first and second group were given water at a volume the same as that in the third and fourth group. At the age of 16-week-old, the urine of the mice was collected, and the concentration of the blood glucose and serum insulin were measured. Then, the mice were sacrificed, and the serum was collected for the analysis of metabolic markers. The liver was weighted and photographed.
(§3) The collected blood and urine were analyzed by a nuclear magnetic resonance spectrum. The steps are shown as follows. • (1) Urine: The urine (500 μl), PBS (50 μl) (81:19 vol/vol, comprising 0.2 M NaHPO4 and 0.2 M NaH2PO4, pH=7.4), 10% deuteroxide, and 0.03% trimethylsilyl propionate (TSP) were mixed in a micro-centrifuge tube and centrifuged with 13000 rpm for 20 minutes at 4° C. The supernatant (500 μl) was collected and analyzed by 600 MHz nuclear magnetic resonance (NMR, Bruker AVANCE 600AV) at 25° C. The 1D NOESY FID signal was transferred to a one-dimensional NMR spectrum of graphing through Fourier transform. • (2) Blood: The serum (250 μl) and deuteroxide (350 μl) were mixed in a micro-centrifuge tube and centrifuged with 13000 rpm for 20 minutes at 4° C. The supernatant (500 μl) was collected and analyzed. The metabolites in serum were analyzed by using NMR sequence CPMG.
It has been known that the concentration of taurine and glycine can be used as markers of bile acid metabolism (see Miyazaki T, Matsuzaki Y (2012) Taurine and liver diseases: a focus on the heterogeneous protective properties of taurine. Amino Acids, which is entirely incorporated hereinto by reference). Therefore, the integrated area of the spectrum of glycine (chemical shift 3.56 ppm singlet) and the taurine (chemical shift 3.40 ppm triplet) in the blood and urine were analyzed.

[2] = test system: amino acid metabolism; experiment: Analysis of amino acid metabolism markers by NMR in serum of high-fat-diet mice; type: in vivo, C57BL6/J male mice; details: gallic acid 100 mg/kg orally daily (the third group)
Description: as §1, §2, §3
It has been known that the concentration of isoleucine, leucine, valine, glutamate, glutamine, tyrosine, phenylalanine, alanine, lysine, arginine and ornithine can be used as the markers of amino acid metabolism (see Rare Disease Diet Control Manual—amino acid metabolism, Foundation for Rare Disorders, pages 18, 22, 26-31, which is entirely incorporated hereinto by reference). Therefore, the integrated area of the spectrum of isoleucine (chemical shift 1.01 ppm dublet), the leucine (chemical shift 0.97 ppm triplet) and the valine (chemical shift 1.04 ppm doublet) in the serum were analyzed.

[3] = test system: gut microbiota metabolism; experiment: Analysis of gut microbiota metabolism markers by NMR in serum and urine of high-fat-diet mice; type: in vivo, C57BL6/J male mice; details: gallic acid 100 mg/kg orally daily (the third group)
Description: as §1, §2, §3
It has been known that the concentration of isobutyric acid, butanoic acid, hippuric acid, dimethylamine and trimethylamine can be used as the markers of the gut microbiota metabolism and reflect the change of gut microbiota. Therefore, the integrated area of the spectrum of isobutyric acid, butanoic acid, hippuric acid, dimethylamine and trimethylamine in the blood and urine were analyzed.

[4] = test system: nonalcoholic fatty liver and insulin resistance in mice induced by the high-fat-diet; experiment: Liver weight, blood glucose, serum insulin and liver pathology in high-fat-diet mice; type: in vivo, C57BL6/J male mice; details: gallic acid 50 or 100 mg/kg orally daily, compared to the high-fat-diet group
Description: as §1, §2

[5] = test system: mouse; details: cited from earlier work

## O=C(O)c1cc(O)c(O)c(O)c1 [gallic acid]
[1]; serum
  glycine, integrated area of NMR spectrum: 142.91 ± 10.60 the normalized and transferred NMR signal × 10^3
[1]; urine
  glycine, integrated area of NMR spectrum: 206.51 ± 8.45 the normalized and transferred NMR signal × 10^3
  taurine, integrated area of NMR spectrum: 489.81 ± 125.78 the normalized and transferred NMR signal × 10^3
[2]
  alanine, integrated area of NMR spectrum: 96.11 ± 6.07 the normalized and transferred NMR signal × 10^3
  arginine, integrated area of NMR spectrum: 30.08 ± 0.78 the normalized and transferred NMR signal × 10^3
  glutamate, integrated area of NMR spectrum: 39.50 ± 1.39 the normalized and transferred NMR signal × 10^3
  glutamine, integrated area of NMR spectrum: 40.61 ± 3.88 the normalized and transferred NMR signal × 10^3
  isoleucine, integrated area of NMR spectrum: 32.29 ± 3.25 the normalized and transferred NMR signal × 10^3
  leucine, integrated area of NMR spectrum: 109.28 ± 2.36 the normalized and transferred NMR signal × 10^3
  lysine, integrated area of NMR spectrum: 74.93 ± 2.24 the normalized and transferred NMR signal × 10^3
  ornithine, integrated area of NMR spectrum: 36.39 ± 1.45 the normalized and transferred NMR signal × 10^3
  phenylalanine, integrated area of NMR spectrum: 6.44 ± 0.39 the normalized and transferred NMR signal × 10^3
  tyrosine, integrated area of NMR spectrum: 6.78 ± 0.85 the normalized and transferred NMR signal × 10^3
  valine, integrated area of NMR spectrum: 68.26 ± 3.46 the normalized and transferred NMR signal × 10^3
[3]; serum
  isobutyric acid, integrated area of NMR spectrum: 22.49 ± 1.55
[3]; urine
  butanoic acid, integrated area of NMR spectrum: 187.08 ± 10.46
  dimethylamine, integrated area of NMR spectrum: 197.9 ± 9.20
  hippuric acid, integrated area of NMR spectrum: 10.33 ± 0.90
  trimethylamine, integrated area of NMR spectrum: 269.21 ± 76.77
[4]; FIGS. 1, 4A, 4B
  effect on nonalcoholic fatty liver induced by the high-fat-diet: ameliorating
[4]; FIGS. 2, 3
  effect on insulin resistance induced by the high-fat-diet: ameliorating
[5]
  No Observed Adverse Effect Level (NOAEL): greater than 5000 mg/kg
